# Columns and labels:
# [1] = system: Human peripheral blood lymphocytes (PBLs); assay: Inhibition of T lymphocyte proliferation (PHA stimulation, tritiated thymidine); assay type: cell-based; conditions: PHA stimulated lymphocytes
# Experimental: Human peripheral blood lymphocytes (PBLs) were isolated from whole blood of healthy volunteers by Ficoll-Isopaque density gradient centrifugation. After washing, monocytes were separated from lymphocytes by percoll density gradient centrifugation. The lymphocytes were cultured in IMDM (Gibco, Verviers, Belgium) supplemented with 10% heat inactivated fetal calf serum.
# Cells were seeded in 96 well plates and stimulated with PHA (10 μg/ml) and corresponding concentration of pharmaceuticals. After 24 hours tritiated thymidine was added to each well and left overnight. Next morning proliferation was measured by microbeta counter. Graphs were plotted with the untreated condition set to a hundred percent.
# scaffolding protein LAT = assay: Western blot of T cell receptor related signaling, phospho-LAT; assay type: cell-based, human; conditions: pretreated 10 minutes, stimulated 10 minutes with PHA; FIG. 2A
# Experimental: (§1) Lymphocytes were seeded in a 6 well plate (1.0·10^7/well), pretreated for 10 minutes with S3.1, S3.4 or dexamethasone and stimulated for 10 minutes with PHA. The experiment was stopped by adding a large volume of ice cold PBS to the cells. The suspension was transferred to a tube, briefly spinned down in a centrifuge and the supernatant removed. The pellet was lysed by adding cold lysisbuffer (0.1% NP40, 50 mM TrisHCl, 1 mM EDTA, 1 mM EGTA, 150 mM NaCl, 200 μM Na3VO4, 10 mM NaF and protease inhibitors) and incubating 20 minutes on ice.
# (§2) To investigate the cell signaling events that are affected by treatment with S3.1 and S3.4, lysates were supplemented with sample buffer (188 mM Tris-Cl (pH 6.8), 3% SDS, 30% glycerol, 0.01% bromophenol blue, 15% β-mercaptoethanol), heated to 95° C. for 5 minutes, cooled on ice and sonicated. Samples were then run on 10% SDS-PAGE gel, blotted to PVDF membrane and incubated with antibodies for phospho-Zap70 (Cell Signaling Technology (Beverly, Mass.)) and phospho-LAT (Cell Signaling Technology (Beverly, Mass.)). To show equal loading of the samples the blot was incubated with an antibody directed against beta-actin (Santa Cruz Biotechnology (Heidelberg, Germany)).
# kinase Zap70 = assay: Western blot of T cell receptor related signaling, phospho-Zap70; assay type: cell-based, human; conditions: pretreated 10 minutes, stimulated 10 minutes with PHA; FIG. 2A
# Experimental: as §1, §2
smiles,measurement,setting,value
c1ccc(CN2CCCC(c3ccnc(SCCN4CCCC4)n3)C2)cc1 (stereo not drawn) [Compound S3.4],effect on T lymphocyte proliferation,[1],antiproliferative effect
same,LAT phosphorylation level compared to a stimulated untreated control,scaffolding protein LAT,lower phosphorylation levels
same,Zap70 phosphorylation level compared to a stimulated untreated control,kinase Zap70,lower phosphorylation levels

# From patent US20150126553A1, “BICYCLIC HETEROCYCLES CAPABLE OF MODULATING T-CELL RESPONSES, AND METHODS OF USING SAME” (Nogra Pharma Limited, priority 2012, published 2015)
